Data set [1] deals with dopamine receptors. The experiment in a line: Test 1 Inhibition of Amphetamine Induced Stereotypy. The format is in vivo, rats. Conditions: for ED50, inhibition of amphetamine induced stereotypy: rats. An excerpt: Test 1 Inhibition of Amphetamine Induced Stereotypy
A short description of data set [2]: Test 4 Increase in Halothane Induced Sleep Time (sedative potential). The format is in vivo, mice. Conditions: for ED50, increase in halothane induced sleep time: mice, one hour before 3% halothane, dose increasing duration of loss of righting reflex by 50%. Here is the method: Test 4 Increase in Halothane Induced Sleep Time
Groups of 6 mice received the test compounds or the requisite volume of vehicle p.o. one hour before being placed in a perspex container. A gas mixture containing 3% halothane in oxygen was passed through this container for 5 minutes. Next the mice were removed and placed on their backs and the latency to the restoration of the righting reflex noted.
The doses shown are those calculated to increase the duration of halothane induced loss of righting reflex by 50%.

Data set [3] has as its system dopamine receptors. The experiment in a line: Test 2 Inhibition of Apomorphine Induced Climbing. The format is in vivo, mice. Particulars: Table I; for ED50, inhibition of apomorphine induced climbing: mice, compound one hour before 10 mg/kg apomorphine, dose reducing climbing score by 50%.
Data set [4] has as its system dopamine receptors. The experiment in a line: Dopamine antagonism, overall statement on Tests 1, 2 and 3. Particulars: for antagonist activity at dopaminergic reception (in words): results of Table 2, Tests 1 and 3, 50 mg/kg for Examples 6 and 7.
Data set [5] has as its system dopamine receptors. The experiment in a line: Test 3 Inhibition of p-chloroamphetamine hyperactivity. The format is in vivo, mice. Particulars: for ED50, inhibition of pCA induced hyperactivity: Table 2, mice. The protocol: Test 3 Inhibition of p-chloroamphetamine hyperactivity
C=mean activity of control groups 10-30 minutes post pCA.
T=mean activity of treated groups 10-30 minutes post pCA.
This test is used as an in vivo screen for detection of 5-hydroxytryptamineuptake inhibitors.

Data set [6] in a line: Test 5 Increase in Fall Rate From Revolving Drum (ability to induce extrapyramidal effects). The format is in vivo, mice. Particulars: for TD50 at 1 h: mouse, in vivo, po, mice, one hour after dosing, dose inducing fall rate half of maximum theoretically possible, read-out: ED50, increase in fall rate from revolving drum. Here is the method:
Test 5 Increase in Fall Rate From Revolving Drum
Groups of 8 mice were trained to walk on a slowly revolving horizontal drum prior to dosing with various concentrations of the test drugs or vehicle. An hour later the mice were replaced on the drum and the number of times each animal fell during the following 3 minutes was noted (mice were replaced immediately after each fall). […] The doses shown are those calculated to induce a fall rate half that of the maximum theoretically possible.

Setting [7] is: Table I, compound one hour before 5 mg/kg d-amphetamine.

With `OC1(c2ccc(Cl)cc2)CCN(Cc2c[nH]c3ccccc23)CC1` [Example 1, 1-(Indol-3-ylmethyl)-4-hydroxy-4-(p-chlorophenyl)piperidine], the “ED50, inhibition of amphetamine induced stereotypy” value in data set [1] (Table 2, 5 mg/kg d-amphetamine) was 25 mg/kg p.o; in data set [1] (setting [7]), 25 mg/kg p.o. Also, in data set [1] (Table I, ratio to haloperidol), the “A/B (ED50 Example 1 / ED50 Haloperidol), amphetamine induced stereotypy” value is 36. Further, the “ED50, increase in halothane induced sleep time” value in data set [2] (Table I) amounted to 200 mg/kg p.o. For the same molecule, the “A/B (ED50 Example 1 / ED50 Haloperidol), halothane induced sleep time” value in data set [2] (Table I, ratio to haloperidol) amounted to 1000. The selectivity ratio in data set [2] (mouse, in vivo, po, ratio of Test 4 dose to doses in Tests 1-3, read-out: dose prolonging halothane-induced sleep relative to doses required to inhibit dopaminergic responses) lay in the range of 8 to 20. In addition, in data set [2] (versus haloperidol), the “sedative potential compared with haloperidol (in words)” value is reported as “lower than that of haloperidol”. Besides, the “ED50, inhibition of apomorphine induced climbing” value in data set [3] is on record as 20 mg/kg p.o. For the same molecule, the “A/B (ED50 Example 1 / ED50 Haloperidol), apomorphine induced climbing” value in data set [3] (ratio to haloperidol) was determined as 40. Also, the “dopamine antagonist potency compared with haloperidol (in words)” value in data set [4] (Tests 1, 2 and 3, versus haloperidol) is “less potent dopamine antagonist than haloperidol”. The “antagonist activity at dopaminergic reception (in words)” value (from here on “antagonist activity”) in data set [4] is given as “both show activity”. Moreover, the “relative potency of Examples 1 and 2 (in words)” value in data set [4] (results of Table 2, Example 1 versus Example 2) is listed as “the more potent”. The “ED50, inhibition of pCA induced hyperactivity” value in data set [5] (20 mg/kg pCA ip) was 10 mg/kg p.o. In data set [5] (Table I, ratio to haloperidol), the “A/B (ED50 Example 1 / ED50 Haloperidol), p-chloro amphetamine hyperactivity” value is 33. In data set [6] (Table I, ratio to haloperidol), the “A/B (ED50 Example 1 / ED50 Haloperidol), fall rate from revolving drum” value was 56. Besides, the TD50 at 1 h in data set [6] (Table I) was 50 mg/kg. The “unwanted extrapyramidal effects compared with haloperidol (in words)” value in data set [6] (versus haloperidol) is listed as “exhibits an advantage with regard to unwanted extrapyramidal effects”.

As for `OC1(c2ccccc2)CCN(Cc2c[nH]c3ccccc23)CC1` [Example 2, 1-(Indol-3-ylmethyl)-4-hydroxy-4-phenylpiperidine], the “antagonist activity” value in data set [4] was “both show activity”. Further, the “ED50, inhibition of pCA induced hyperactivity” value in data set [5] (20 mg/kg pCA ip) was found to be 32.6 mg/kg p.o.

As for `OC1(c2ccccc2)CCN(CCc2c[nH]c3ccccc23)CC1` [Example 6, 1-(2-(Indol-3-yl)ethyl)-4-hydroxy-4-phenylpiperidine, reference compound], in data set [1] (Table 2, 5 mg/kg d-amphetamine), the “ED50, inhibition of amphetamine induced stereotypy” value is above 50 mg/kg p.o. The “antagonist activity” value in data set [4] was “neither of the compounds of Examples 6 and 7 posses significant antagonist activity”. Further, in data set [5] (20 mg/kg pCA ip), the “ED50, inhibition of pCA induced hyperactivity” value is above 50 mg/kg p.o.

As to `OC1(c2ccc(Cl)cc2)CCN(CCc2c[nH]c3ccccc23)CC1` [Example 7, 1-(2-(Indol-3-yl)ethyl)-4-(p-chlorophenyl)-4-hydroxypiperidine, reference compound], the “ED50, inhibition of amphetamine induced stereotypy” value in data set [1] (Table 2, 5 mg/kg d-amphetamine) is on record as above 50 mg/kg p.o. Moreover, the “antagonist activity” value in data set [4] was “neither of the compounds of Examples 6 and 7 posses significant antagonist activity”. Further, the “ED50, inhibition of pCA induced hyperactivity” value in data set [5] (20 mg/kg pCA ip) is on record as above 50 mg/kg p.o.

For `O=C(CCCN1CCC(O)(c2ccc(Cl)cc2)CC1)c1ccc(F)cc1` [Haloperidol, haloperidol, reference compound], in data set [1] (setting [7]), the “ED50, inhibition of amphetamine induced stereotypy” value was determined as 0.7 mg/kg p.o. Moreover, in data set [2] (Table I), the “ED50, increase in halothane induced sleep time” value is recorded as 0.2 mg/kg p.o. Besides, the “dose prolonging halothane-induced sleep compared with doses inhibiting dopaminergic responses (in words)” value in data set [2] (Test 4 versus Tests 1-3) is “prolongs halothane-induced sleep at doses lower than those required to ihibit dopaminergic responses”. In addition, the “ED50, inhibition of apomorphine induced climbing” value in data set [3] is reported as 0.5 mg/kg p.o. The “ED50, inhibition of p-chloro amphetamine hyperactivity” value in data set [5] (Table I, female mice, 20 mg/kg pCA ip, activity 10-30 minutes post pCA) was 0.3 mg/kg p.o. In addition, in data set [6] (Table I), the TD50 at 1 h was found to be 0.9 mg/kg.

The record behind these values is patent publication US4358456A, “Antipsychotic piperidinomethyl-indole derivatives” (John Wyeth & Brother Limited, priority 1980, dated 1982).
